Results on 2 molecules are retold here after US11999993B2, “Use of biomarkers in identifying cancer patients that will be responsive to treatment with a PRMT5 inhibitor” (Janssen Pharmaceutica NV, priority 2017, dated 2024).

One assay concerns HCC78. Briefly: Proliferation sensitivity, NSCLC U2AF1-S34F cell panel. As to conditions: Homo sapiens, Adenocarcinoma. In kind it is cell-based.
The subject of the next assay is NCI-H1048. Briefly: Cellular sensitivity, lung cancer cell line panel (SCLC). As to conditions: Homo sapiens, NCI-H1048, PIK3CA H1047R. Format: cell-based.
The test system of another assay is H69V. The description is as above. In kind it is cell-based. Conditions: PIK3CA G106_R108del.
In another assay the test system is HLC1. Briefly: Lung cell line panel sensitivity, Cyclin D1 pathway amplified NSCLC. Format: cell-based. As to conditions: HLC1, CDK6 amplified, Squamous Cell Carcinoma.
For another assay, the system named is EPLC272H. The assay is described as above. In kind it is cell-based. As to conditions: Homo sapiens, EPLC-272H, Adenocarcinoma.
In the next assay the test system is NCI-H441. Nature of the assay: Proliferation sensitivity, NSCLC U2AF1-S34F cell panel. In kind it is cell-based. Conditions: Homo sapiens, Adenocarcinoma.
In the next assay the test system is NCI-H226. Nature of the assay: Lung cell line panel sensitivity, Cyclin D1 pathway amplified NSCLC. In kind it is cell-based. As to conditions: Homo sapiens; NCI-H226, CDK4 amplified, Adenocarcinoma.
For the next assay, the system named is LC-2/ad. Nature of the assay: Proliferation sensitivity, NSCLC U2AF1-S34F cell panel. In kind it is cell-based. As to conditions: Homo sapiens, Adenocarcinoma.
For the next assay, the system named is LU99a. Briefly: Cellular sensitivity, lung cancer cell line panel (SCLC). Format: cell-based. As to conditions: Homo sapiens, LU-99A, PIK3CA T1025A.
The target of the next assay is PRMT5 (Homo sapiens, UniProt O14744). Conditions: Chan-Penebre et al., Nat Chem Biol 2015; cited from earlier work.
The subject of a further assay is MCL xenograft models. As to conditions: multiple MCL xenograft models; Chan-Penebre et al. 2015; cited from earlier work.

Sequence of PRMT5 (O14744 whole entry): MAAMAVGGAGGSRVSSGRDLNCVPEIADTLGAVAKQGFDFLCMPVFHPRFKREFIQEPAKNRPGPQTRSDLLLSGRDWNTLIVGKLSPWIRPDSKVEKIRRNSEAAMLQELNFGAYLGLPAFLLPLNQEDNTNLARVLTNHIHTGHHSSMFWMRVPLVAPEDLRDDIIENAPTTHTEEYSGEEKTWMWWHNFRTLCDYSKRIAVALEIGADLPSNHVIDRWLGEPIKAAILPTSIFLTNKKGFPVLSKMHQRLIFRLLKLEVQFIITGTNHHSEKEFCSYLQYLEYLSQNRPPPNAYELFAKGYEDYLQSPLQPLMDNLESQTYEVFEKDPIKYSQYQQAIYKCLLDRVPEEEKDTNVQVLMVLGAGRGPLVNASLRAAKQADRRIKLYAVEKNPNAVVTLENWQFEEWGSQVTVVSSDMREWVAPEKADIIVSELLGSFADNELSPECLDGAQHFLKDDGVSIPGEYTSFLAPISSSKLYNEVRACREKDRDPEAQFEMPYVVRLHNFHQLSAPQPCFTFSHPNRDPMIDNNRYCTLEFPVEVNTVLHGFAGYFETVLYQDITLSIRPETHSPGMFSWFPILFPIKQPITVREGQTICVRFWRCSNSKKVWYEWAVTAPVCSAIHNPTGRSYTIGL
Sequence of PRMT5 (Q9BQA1 whole entry partner): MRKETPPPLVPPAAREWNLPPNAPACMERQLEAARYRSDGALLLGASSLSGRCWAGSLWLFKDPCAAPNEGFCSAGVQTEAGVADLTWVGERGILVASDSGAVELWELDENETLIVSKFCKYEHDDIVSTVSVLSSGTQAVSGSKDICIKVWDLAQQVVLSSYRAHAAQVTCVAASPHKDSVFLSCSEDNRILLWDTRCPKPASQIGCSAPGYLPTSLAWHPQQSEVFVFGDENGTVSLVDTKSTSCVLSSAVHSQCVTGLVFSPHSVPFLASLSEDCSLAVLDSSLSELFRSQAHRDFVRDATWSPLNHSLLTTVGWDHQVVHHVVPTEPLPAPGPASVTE

For orientation: GI50 means the concentration at which growth is held to half of that of the control. The low end stands for more potent growth inhibition, the high end for less potent growth inhibition. On to `Nc1ncnc2c1ccn2[C@@H]1O[C@H](COc2ccc3cc(Br)cnc3c2)[C@@H](O)[C@H]1O` [Compound 2], for which the GI50 was determined as 108 nM with HCC78; 94.6 nM in the assay with NCI-H1048; 85.6 nM in the assay with H69V; 96.4 nM with HLC1; 98.5 nM with EPLC272H; 98.4 nM in the assay with NCI-H441. The figures for the GI50 in the assay with NCI-H226, with LC-2/ad and in the assay with LU99a were 205 nM, 116 nM and 129 nM, respectively.

Consider `O=C(NC[C@H](O)CN1CCc2ccccc2C1)c1cc(NC2COC2)ncn1` [EPZ015666], for which the PRMT5 inhibitor potency result on PRMT5 is “sub-nanomolar”. Further, the anti-tumor activity result in the assay with MCL xenograft models is “anti-tumor activity in multiple MCL xenograft models”.
